{
  "source": "ChEMBL document CHEMBL2203002",
  "about": "“Fluorescent nitrile-based inhibitors of cysteine cathepsins” (Bioorg Med Chem Lett, 2012)",
  "key": {"Cathepsin S [1]": {"molecular_target": "T1, Cathepsin S (Homo sapiens, UniProt P25774)", "assay": "Inhibition of human recombinant cathepsin S using Z-Phe-Arg-pNA as substrate after 10 mins by […] analysis"}, "[2]": {"assay": "Inhibition of human cathepsin L using Z-Phe-Arg-pNA as substrate after 10 mins by […] analysis"}, "Cathepsin B [3]": {"molecular_target": "T2, Cathepsin B (Homo sapiens, UniProt P07858)", "assay": "Inhibition of human recombinant cathepsin B using Z-Arg-Arg-pNA as substrate after 10 mins by […] analysis"}, "Cathepsin K [4]": {"molecular_target": "T3, Cathepsin K (Homo sapiens, UniProt P43235)", "T3 sequence (P43235 whole entry)": "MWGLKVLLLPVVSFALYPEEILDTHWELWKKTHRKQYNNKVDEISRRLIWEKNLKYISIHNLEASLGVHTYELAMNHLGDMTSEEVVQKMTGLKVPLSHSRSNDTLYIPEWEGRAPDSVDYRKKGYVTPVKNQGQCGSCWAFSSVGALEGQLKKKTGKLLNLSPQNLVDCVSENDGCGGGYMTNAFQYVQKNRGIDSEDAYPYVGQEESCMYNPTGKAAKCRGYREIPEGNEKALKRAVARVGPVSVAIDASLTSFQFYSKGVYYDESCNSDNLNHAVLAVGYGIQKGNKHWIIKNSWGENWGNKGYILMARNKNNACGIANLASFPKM", "assay": "Inhibition of human recombinant cathepsin K using Z-Leu-Arg-AMC as substrate after 10 mins by fluorimetric analysis"}, "Cathepsin K [5]": {"molecular_target": "T3, Cathepsin K", "assay": "Inhibition of human recombinant cathepsin K using Z-Leu-Arg-AMC as substrate after 80 mins by fluorimetric analysis"}, "[6]": {"assay": "Inhibition of human cathepsin L using Z-Phe-Arg-pNA as substrate incubated for 30 mins prior to substrate addition measured after 10 mins by […] analysis"}, "Cathepsin B [7]": {"molecular_target": "T2, Cathepsin B", "assay": "Inhibition of human recombinant cathepsin B using Z-Arg-Arg-pNA as substrate after 80 mins by […] analysis"}, "[8]": {"molecular_target": "T4, Cathepsin K (Homo sapiens) (UniProt P43235)", "T4 sequence (whole entry)": "T3 sequence (P43235 whole entry)", "description": "Binding affinity to human recombinant cathepsin K assessed as compound-enzyme half life"}, "Cathepsin S [9]": {"molecular_target": "T1, Cathepsin S", "description": "Binding affinity to human recombinant cathepsin S assessed as compound-enzyme half life"}, "Cathepsin B [10]": {"molecular_target": "T2, Cathepsin B", "description": "Binding affinity to human recombinant cathepsin B assessed as compound-enzyme half life"}, "Cathepsin S [11]": {"molecular_target": "T1, Cathepsin S", "assay": "Inhibition of human recombinant cathepsin S using Z-Phe-Arg-pNA as substrate after 80 mins by […] analysis"}},
  "data": [
    {"smiles": "CCN(CC)c1ccc2cc(C(=O)NC3(C(=O)NCC#N)CCCCC3)c(=O)oc2c1", "values": [
      {"measurement": "Ki", "setting": "Cathepsin S [1]", "result": 8400, "unit": "nM"},
      {"measurement": "Ki", "setting": "[2]", "result": 18000, "unit": "nM"},
      {"measurement": "Ki", "setting": "Cathepsin B [3]", "result": "> 40000", "unit": "nM"},
      {"measurement": "Ki", "setting": "Cathepsin K [4]", "result": 230, "unit": "nM"}
    ]},
    {"smiles": "CN(C)c1cccc2c(S(=O)(=O)NC3(C(=O)NCC#N)CCCCC3)cccc12", "values": [
      {"measurement": "Ki", "setting": "Cathepsin S [1]", "result": 6600, "unit": "nM"},
      {"measurement": "Ki", "setting": "[2]", "result": "> 40000", "unit": "nM"},
      {"measurement": "Ki", "setting": "Cathepsin B [3]", "result": "> 40000", "unit": "nM"},
      {"measurement": "Ki", "setting": "Cathepsin K [4]", "result": 880, "unit": "nM"}
    ]},
    {"smiles": "CCN(CC)c1ccc2cc(C(=O)NC3(C(=O)N(C)N(C)C#N)CCCCC3)c(=O)oc2c1", "values": [
      {"measurement": "Ki", "setting": "Cathepsin K [5]", "result": 19, "unit": "nM"},
      {"measurement": "Ki", "setting": "[6]", "result": 760, "unit": "nM"},
      {"measurement": "Ki", "setting": "Cathepsin B [7]", "result": 140, "unit": "nM"},
      {"measurement": "T1/2", "setting": "[8]", "result": 30, "unit": "min"},
      {"measurement": "T1/2", "setting": "Cathepsin S [9]", "result": 30, "unit": "min"},
      {"measurement": "T1/2", "setting": "Cathepsin B [10]", "result": 30, "unit": "min"},
      {"measurement": "Ki", "setting": "Cathepsin S [11]", "result": 750, "unit": "nM"}
    ]}
  ]
}
